Laboratory results published in ChEMBL document CHEMBL3301472, “MMV Malaria Box HIV and cytotoxicity screening”.

Experiments:
[1] = MMV: MTT Cytotoxicity Assay Day 3 pi, U87-CD4-CCR5 cells, % cell death @ 5mM compound; format: toxicity, cell-based; details: human, u87-cd4-ccr5, 5000 µM
[2] = MMV: MTT Cytotoxicity Assay Day 3 pi, U87-CD4-CXCR4 cells, % cell death @ 5mM compound; format: toxicity, cell-based; details: human, u87-cd4-cxcr4, 5000 µM
[3] = MMV: MTT Cytotoxicity Assay Day 7 pi of Assay #6 (compound washed out Day 1 pi), U87-CD4-CCR5 cells, % cell death @ 5mM compound; format: toxicity, cell-based; details: human, u87-cd4-ccr5, 5000 µM
[4] = MMV: MTT Cytotoxicity Assay Day 7 pi of Assay #7 (compound washed out Day 1 pi), U87-CD4-CXCR4 cells, % cell death @ 5mM compound; format: toxicity, cell-based; details: human, u87-cd4-cxcr4, 5000 µM
[5] = system: Human immunodeficiency virus 1; assay: MMV: HIV JRFL CCR5-tropic replication-competent virus, NO washout, P24 ELISA Day 7 pi, U87-CD4-CCR5, % inhibition at 5 mM compound; format: functional; parameters: dose or concentration left out as unconfirmed; details: Human immunodeficiency virus 1, JR-FL, U87/CD4/CCR5, 168 h
[6] = MMV: MTT Cytotoxicity Assay Day 7 pi of Assay #10 (NO washout), U87-CD4-CCR5 cells, % cell death @ 5mM compound; format: toxicity, cell-based; details: human, u87-cd4-ccr5, 5000 µM
[7] = MMV: MTT Cytotoxicity Assay Day 7 pi of Assay #11 (NO washout), U87-CD4-CXCR4 cells, % cell death @ 5mM compound; format: toxicity, cell-based; details: human, u87-cd4-cxcr4, 5000 µM
[8] = system: Human immunodeficiency virus 1; assay: MMV: HIV CXCR4-tropic env NL4-3 pseudovirus assay produces luciferase signal in lieu of replicating viral particles Day 3 pi, U87-CD4-CXCR4, % inhibition at 5 mM compound; format: functional; parameters: dose or concentration left out as unconfirmed; details: Human immunodeficiency virus 1, NL4-3, U87.CD4.CXCR4, 72 h
[9] = system: Human immunodeficiency virus 1; assay: MMV: HIV NL4-3 CXCR4-tropic replication-competent virus, NO washout, P24 ELISA Day 7 pi, U87-CD4-CXCR4, % inhibition at 5 mM compound; format: functional; parameters: dose or concentration left out as unconfirmed; details: Human immunodeficiency virus 1, NL4-3, U87.CD4.CXCR4, 168 h
[10] = system: Human immunodeficiency virus 1; assay: MMV: HIV CCR5-tropic env JRFL pseudovirus assay produces luciferase signal in lieu of replicating viral particles Day 3 pi, U87-CD4-CCR5, % inhibition at 5 mM compound; format: functional; parameters: dose or concentration left out as unconfirmed; details: Human immunodeficiency virus 1, JR-FL, U87/CD4/CCR5, 72 h
[11] = system: Human immunodeficiency virus 1; assay: MMV: HIV NL4-3 CXCR4-tropic replication-competent virus, virus & compound washed out Day 1 pi, P24 ELISA Day 7 pi, U87-CD4-CXCR4, % inhibition at 5 mM compound; format: functional; parameters: dose or concentration left out as unconfirmed; details: Human immunodeficiency virus 1, NL4-3, U87.CD4.CXCR4
[12] = system: Human immunodeficiency virus 1; assay: MMV: HIV CXCR4-tropic env HxB2 pseudovirus assay produces luciferase signal in lieu of replicating viral particles Day 3 pi, U87-CD4-CXCR4, % inhibition at 5 mM compound; format: functional; parameters: dose or concentration left out as unconfirmed; details: Human immunodeficiency virus 1, HxB2, U87.CD4.CXCR4, 72 h
[13] = system: Human immunodeficiency virus 1; assay: MMV: HIV JRFL CCR5-tropic replication-competent virus, virus & compound washed out Day 1 pi, P24 ELISA Day 7 pi, U87-CD4-CCR5, % inhibition at 5 mM compound; format: functional; parameters: dose or concentration left out as unconfirmed; details: Human immunodeficiency virus 1, JR-FL

Row | SMILES | % Cell Death [1] | % Cell Death [2] | % Cell Death [3] | % Cell Death [4] | inhibition [5] [%] | % Cell Death [6] | % Cell Death [7] | inhibition [8] [%] | inhibition [9] [%] | inhibition [10] [%] | inhibition [11] [%] | inhibition [12] [%] | inhibition [13] [%]
1 | Cc1cc(C)c2c(c1)OCN(Cc1ccccc1Cl)C2 | -12 | 31 | 20 | -14 | -2 | -6 | 33 |  |  |  |  |  | 
2 | CCN(CC)CCn1c(=N)n(CC(O)c2ccc(Cl)c(Cl)c2)c2ccccc21.Cl (stereo unspecified) | 18 | 4 | 14 | 20 |  | -29 | 52 | 10 | 0 |  |  |  | 
3 | Cc1ccccc1OCCSc1nc2ccc(NC(=O)c3ccccc3)cc2s1 | 96 | 36 | 31 | 1 |  | 106 | 100 |  |  | 10 |  |  | 
4 | COc1cc(OC)c(N(C)C(=O)c2cc3c(s2)-c2ccccc2S(=O)(=O)C3)cc1Cl | 28 | 33 | 22 | -18 |  | -2 | -30 |  | 2 |  | 7 |  | 
5 | Cc1ccc(OCCCCCCNCCO)c(C)c1 | -3 | 28 | 30 | -10 |  | 15 | -10 |  |  | -2 |  |  | 
6 | CC(=O)Nc1nnc(SCc2c(C)cc(C(C)(C)C)cc2C)s1 | 14 | 27 | 3 | 10 |  | 3 | 6 |  |  | 8 |  |  | 
7 | CCN1CCN(c2cc(C)c3cc(NC(=O)c4ccc(OC)c(OC)c4)ccc3n2)CC1 | 95 | 36 | 93 | 61 | -2 | 43 | 55 |  |  |  |  |  | 
8 | Br.CCN(CC)S(=O)(=O)c1ccc(-c2csc(Nc3ccc(C)c(C)c3)n2)cc1 | -17 | 29 | 20 | -19 |  | 26 | 11 |  |  | -2 | 3 |  | 
9 | CCCCCCOC(=O)C1=C(C)NC(=O)NC1c1ccccc1F (stereo unspecified) | 16 | 29 | -10 | -33 |  | 40 | -34 |  |  | -2 |  | 3 | 
10 | c1ccc(CNc2nc(Nc3ccccc3)nc3ccccc23)cc1 | 36 | 53 | -8 | -7 |  | 27 | 0 |  | -2 | 6 |  | 9 | 
11 | COc1cccc(C2(C)Nc3ccccc3-c3nc4ccccc4n32)c1 (stereo unspecified) | -22 | 28 | 37 | 25 |  | 35 | 92 |  |  | 9 |  |  | 
12 | CCc1c(C)c(=N)c2ccccc2n1C.I | 22 | 100 | 30 | -17 | 8 | -10 | -5 |  |  |  |  |  | 
13 | CCOC(=O)c1cnc2ccc(OC)cc2c1Nc1ccc(N2CCN(C)CC2)cc1 | -13 | 37 | 5 | 17 |  | 11 | -14 | 6 |  | -2 | 8 | -1 | 
14 | COc1ccc(-c2nonc2NC(=O)c2cccc(Cl)c2)cc1OC | 61 | 45 | 13 | 49 |  | 100 | 97 |  |  | -2 |  |  | 
15 | CCN1CCN(Cc2ccc(NC(=O)c3cc4ccc5cccnc5c4[nH]3)cc2)CC1 | -23 | 22 | 38 | -2 | 3 | 9 | 26 |  |  |  |  |  | 
16 | Nc1ccc(-c2nc3cc(Oc4ccc(Oc5ccc6[nH]c(-c7ccc(N)cc7)nc6c5)cc4)ccc3[nH]2)cc1 | 21 | 51 | 12 | 68 |  | 113 | 21 |  |  | 4 |  |  | 
17 | COc1ccc(C(=O)Nc2nonc2-c2ccc(OC)c(OC)c2)cc1Cl | 64 | 47 | 13 | 53 |  | 100 | 67 |  |  | 5 |  | 9 | 6
18 | O=C(NC1CCN(Cc2ccccc2)CC1)c1cc(-c2cccnc2)nc2ccc(Cl)cc12 | -9 | 34 | 11 | -10 |  | 43 | 40 |  |  | 8 |  | 8 | 
19 | COc1ccccc1C(=O)ON=C(N)Cc1cccc2ccccc12 | 23 | 47 | -17 | 42 |  | 43 | -11 | 1 | 0 |  |  |  | 
20 | Cc1sc(NC(=O)c2ccco2)c(C(c2cccnc2)N2CCC(Cc3ccccc3)CC2)c1C (stereo unspecified) | 110 | 88 | 81 | 94 |  | 107 | 104 |  |  | 8 |  |  | 
21 | CCCc1cc(O)c2c3c(c(=O)oc2c1)CN(C)CC3 | 22 | 44 | -8 | 57 |  | 45 | 40 | 4 | 6 |  |  |  | 
